The values that follow are results of earlier work, collected in patent US20060165671A1, “Novel nutraceutical compositions comprising epigallocatechin gallate” (priority 2002, published 2006).

Series [1] concerns muscle and adipose cells in culture.
For series [2] the following is noted: glucose intolerant and non-insulin dependent diabetic animals.
The conditions of series [3]: patients with type 2.
The test system of a further series is rat primary hepatocytes. The settings on record: concentrations from about 10 to about 100 μM.
The next series concerns pre-adipocyte cells. To be noted: compared to the specific PPAR-γ agonist ciglitazone.
For series [4] the following is noted: after CoQ10 supplementation, several studies.

For the molecule “1,2-dithiolane-3-pentaenoic acid [Lipoic acid]”, the glucose transport result in series [1] is “stimulates glucose transport”. For the same molecule, in series [2], the “basal and insulin-stimulated glucose uptake by skeletal muscles” value is given as “raised”. Further, in series [3], the glucose disposal entry is given as “improves glucose disposal”.
For `CC(C)CCCC(C)CCCC(C)CCCC(C)CC(=O)O` (stereo not drawn) [Phytanic acid, 3,7,11,15-tetramethylhexadecanoic acid], the uptake of glucose entry in the series with rat primary hepatocytes is “enhances uptake of glucose”. For the same molecule, in the series on pre-adipocyte cells, the “differentiation of pre-adipocyte cells into mature adipocytes” value is “only minor effects”.
Consider `COC1=C(OC)C(=O)C(C/C=C(\C)CC/C=C(\C)CC/C=C(\C)CC/C=C(\C)CC/C=C(\C)CC/C=C(\C)CC/C=C(\C)CC/C=C(\C)CC/C=C(\C)CCC=C(C)C)=C(C)C1=O` [CoQ10, 6-Decaprenyl-2,3-dimethoxy-5-methyl-1,4-benzoquinone], for which, in series [4], the LDL oxidation entry is “reduced”.
